From US7141696B2, “Smooth muscle spasmolytic agents” (Bridge Pharma, Inc., priority 2003, dated 2006)

Assays:
muscarinic receptors = conditions: from prior publications and patents; cited from earlier work
smooth muscle = conditions: from prior patents; cited from earlier work
bladder hyperactivity = conditions: cited from earlier work
QTc interval = assay: Effects on the QT-interval of the ECG; set-up: species or system guinea pigs; conditions: guinea pig, in vivo
Description: Anesthetized male guinea pigs (450–600 g) are used. The trachea is cannulated. Lead II electrocardiogram are recorded at 50 mm/sec. The is a 30 minute stabilization time after surgery, during which three baseline EKG recordings are made at 10-min intervals. Test article or vehicle are administered as an iv infusion over 30 min. ECG recordings are used to determine QT intervals and heart rates. To compensate for variations in heart rates, QTc intervals are calculated from QT- and RR-intervals as known to those skilled in the art. Prolongation of QTc is indicative of a prolonged action potential. Prolongation of QTc is a known cause of Torsades de Pointes ventricular fibrillation by drugs such as terodiline, terfenadine and astemizole (all of which have been withdrawn because of arrhythmogenic side effect).

CC(C)N(CC[C@H](c1ccccc1)c1cc(CO)ccc1O)C(C)C [Example 5HM]
anticholinergic activity / inhibition of muscarinic receptors (muscarinic receptors): potent and non-selective inhibition of muscarinic receptors

Cc1ccc(O)c([C@@H](CCN(C(C)C)C(C)C)c2ccccc2)c1 [S-TOL]
anticholinergic activity / inhibition of muscarinic receptors (muscarinic receptors): little anticholinergic activity
non-cholinergic spasmolytic activities (smooth muscle): express non-cholinergic spasmolytic activities

Cc1ccc(O)c([C@H](CCN(C(C)C)C(C)C)c2ccccc2)c1 [Tolterodine, R—N,N-diisopropyl-3-(2-hydroxy-5-methylphenyl)-3-phenylpropylamine]
anticholinergic activity / inhibition of muscarinic receptors (muscarinic receptors): potent and non-selective inhibition of muscarinic receptors
bladder hyperactivity in patients suffering from urinary incontinence (bladder hyperactivity): reduce bladder hyperactivity
delay of cardiac repolarization (prolongation of the QTc interval of the ECG) (QTc interval): potently prolongs the QTc interval

Cc1ccc(O)c(C(CCNC(C)C)c2ccccc2)c1 (centres unmarked) [DES-TOL]
anticholinergic activity / inhibition of muscarinic receptors (muscarinic receptors): anticholinergic activity was further decreased
non-cholinergic spasmolytic activities (smooth muscle): express non-cholinergic spasmolytic activities
